Results on four compounds are retold here after patent publication US10343991B2, “C5, C6 substituted and/or fused oxindoles as anti-cancer agents and process for preparation thereof” (Council of Scientific & Industrial Research, priority 2016, dated 2019).

By melting point is commonly meant the temperature of the solid-liquid transition. One may read the viability as a read-out of living cells in per cent, often relative to untreated cells.

The subject of data set [1] is VEGF tyrosin kinase (VEGFR). In words: VEGFR activity, phosphotyrosine (PY) cell-based ELISA. The note with it: 10 μM, 60 min pretreatment, VEGF stimulation. The method, then:
Briefly, cells at 60-75% confluence were placed in serum-free medium for 18 h to reduce the background of phosphorylation. Cells were then pretreated for 60 min with 2b, 3d, 3e, 3g, 3h, 3i, 3j and 3k compounds at 10 μM concentration followed by an optimized dose of purified growth factor (VEGF). The reaction was stopped, and cells were permeabilized by quickly removing the media from the cells and adding ice-cold Tris-buffered saline (TBS) containing 0.05% triton X-100, protease inhibitor cocktail, and tyrosine phosphatase inhibitor cocktail (both from Sigma Chemical). The TBS solution was then removed, and cells were fixed to the plate by heat and further incubation in 70% ethanol. Cells were further exposed to block (TBS with 1% BSA) and washed, and then a horseradish peroxidase (HRP)-conjugated phosphotyrosine antibody was added. The antibody was removed; cells were washed again and exposed to an enhanced luminol ELISA substrate, and light emission was measured using a plate reader. The known RTK-specific kinase inhibitor (Sunitinib) was used as positive control for kinase inhibition.
(An ELISA detects its analyte on a solid surface through an enzyme-linked reagent.)

Data set [2] relates to THP1 cells. In kind it is cell-based, human. The note with it: THP-1 cells, 10 μM, 24 h; untreated cells 68.3%. Here is the method:
To understand the anticancer activity mechanism of the synthesized oxindole derivatives, we analysed the cell cycle alteration phase distribution of the cells by treating THP1 cells with oxindole derivatives at 10 μM, for 24 h and analyzed by flow cytometry. Treatment of THP-1 cells with compounds 2b, 3d, 3e, 3g, 3h, 3i, 3j and 3k caused an accumulation of 98.5%, 94.3%, 96.7%, 97%, 98%, 83%, 93.5%, 98.1% cells in the G0/G1 phase respectively as compared to 68.3% in untreated cells and 99.5% in Sunitinib treated cells. […] (Fig. x and Table .y).
The THP1 cells were treated with the active compounds at […] and incubated for about 24 h. The cells were fixed in ice cold ethanol solvent at 4° C. for about 30 minutes. The ethanol was removed and cells were treated with 1 mL of DNA staining solution (2 mg of RNase and 0.2 mg of propidium iodide (PI)) for 30 minutes. The DNA content was measured by flow cytometry (BD FACS C anto II). Results were analysed using FCS express 4 plus software.

Data set [3] deals with THP1 cells. In words: Trypan blue assay, cell viability. The note with it: Homo sapiens, THP-1, 48 h, average of three experiments. In kind it is cell-based. Here is the method: (§1) In order to determine the anticancer potency, the synthesized oxindole derivatives were evaluated for anti-cancer activity various different human cancer cell lines, Leukemic Cancer (THP1), human breast cancer (MDA-MB-231 and MCF-7), human cervix carcinoma cells (HeLa), prostate cancer (DU-145) cellS by using standard Trypan blue and SRB assays. The preliminary anticancer activity for all the synthesized compounds was done at 10 μM concentration and cell inhibition was determined. […] The experiment was repeated thrice and the average values were taken.
The assay was carried out in a 24 well flat-bottomed microtiter tissue culture plate. THP1 cells were seeded in the plates with a density of 4×10^4 cells/well (counted by tryphan blue exclusion dye method). Compounds were added to obtain a concentration of 10 μM. Sunitinib was used as positive control. Plates were incubated for 48 h at 37° C. in a humidified incubator with 5% CO2. At the end of the treatments, cells (THP1) were resuspended in 0.4% trypan blue and percent cell viability was counted using countess cell chamber (Life Technologies).

The subject of another data set is DU-145 cells. In words: SRB assay, cell viability. In kind it is cell-based. The note with it: Homo sapiens, 48 h, average of three experiments, read-out: DU145 Cell Viability at 10 μM. Here is the method: as §1
(§2) The assay was carried out in a 24 well flat-bottomed microtiter tissue culture plate. Cells were seeded in the plates with a density of 4×10^4 cells/well (counted by tryphan blue exclusion dye method). After 24 hours media was replaced with fresh media and then compounds were added to obtain a concentrations of 10 μM. Sunitinib was used as positive control. Plates were incubated for 48 h at 37° C. in a humidified incubator with 5% CO2. After 48 hours without removing the cell culture supernatant, 500 μl of cold 10% (wt/vol) TCA was added to each well, and the plates were incubated at 4° C. for 1 h. The plates were washed for four times with water then rinsed with water several times to remove TCA, serum, proteins and excess water was removed using paper towels and air dried. 100 μl of 0.4% (wt/vol in 1% acetic acid) SRB solution was added to each well. Plates were left at room temperature for 30 min and then the plates were quickly rinsed for four times with 1% (vol/vol) acetic acid to remove unbound dye were and then air dried until no moisture was visible. 100 μl of 10 mM Tris base solution (pH 10.5) was added to each well and shake for 5 min to solubilize the protein-bound dye. Optical density was measured at 564 nm in a micro plate reader.

For another data set, the system named is HeLa cells. Kind of data set: SRB assay, cell viability. The note with it: Homo sapiens, 48 h, average of three experiments. In kind it is cell-based. Here is the method:
as §1, §2

The test system of the next data set is MCF-7 cells. In words: SRB assay, cell viability. In kind it is cell-based. The note with it: Homo sapiens, MCF7, 48 h, average of three experiments. The method, then: as §1, §2
The next data set relates to MDA-MB-231 cells. Kind of data set: SRB assay, cell viability. In kind it is cell-based. The note with it: Homo sapiens, 48 h, average of three experiments. The method, then:
as §1, §2

`Cc1ccc(S(=O)(=O)n2cc(C(C#Cc3ccccc3)c3cc4c(cc3O)NC(=O)/C4=C\c3[nH]c(C)cc3C)c3ccccc32)cc1` (centres unmarked) [Compound 3g, (Z)-3-((3,5-dimethyl-1H-pyrrol-2-yl)methylene)-6-hydroxy-5-(3-phenyl-1-(1-tosyl-1H-indol-3-yl)prop-2-yn-1-yl)indolin-2-one]: the melting point lay within 185 to 186 °C. The “inhibitory activity of VEGF tyrosin kinase activity” value in data set [1] is “inhibitory activity”. In addition, in the data set on THP1 cells [2], the “accumulation of cells in the G0/G1 phase” value is given as 97%. Moreover, in the data set on THP1 cells [3], the viability at 10 µM was found to be 104%. Further, the viability at 10 µM with DU-145 cells was found to be 94.3%. In addition, the viability at 10 µM with HeLa cells is 88.3%. Also, the viability at 10 µM in the data set on MCF-7 cells is 91.5%. Moreover, in the data set with MDA-MB-231 cells, the viability at 10 µM came out at 63.8%.
`Cc1cc(C)c(/C=C2\C(=O)Nc3cc4oc(Cc5ccccc5)c(-c5ccccc5)c4cc32)[nH]1` [Compound 3h, (Z)-2-benzyl-5-((3,5-dimethyl-1H-pyrrol-2-yl)methylene)-3-phenyl-5H-furo[3,2-f]indol-6(7H)-one]: the melting point lay in the range of 186 to 188 °C. For the same compound, the “inhibitory activity of VEGF tyrosin kinase activity” value in data set [1] was “inhibitory activity”. Further, the “accumulation of cells in the G0/G1 phase” value in the data set on THP1 cells [2] is given as 98%. Besides, the viability at 10 µM in the data set on THP1 cells [3] came to 36.2%. For the same compound, in the data set on DU-145 cells, the viability at 10 µM worked out at 58.6%. For the same compound, the viability at 10 µM in the data set with HeLa cells came out at 40.3%. Further, the viability at 10 µM in the data set on MCF-7 cells is 40.5%. The viability at 10 µM in the data set with MDA-MB-231 cells was 41.3%.
In the case of `Cc1ccsc1/C=C1\C(=O)Nc2cc3oc(Cc4ccccc4)c(-c4ccccc4)c3cc21` [Compound 3i, (Z)-2-benzyl-5-((3-methylthiophen-2-yl)methylene)-3-phenyl-5H-furo[3,2-f]indol-6(7H)-one], the melting point lay in the range of 165 to 168 °C. Moreover, the “inhibitory activity of VEGF tyrosin kinase activity” value in data set [1] is “inhibitory activity”. Also, the “accumulation of cells in the G0/G1 phase” value with THP1 cells [2] was 83%. In addition, the viability at 10 µM in the data set on THP1 cells [3] was determined as 41.2%. In addition, in the data set on DU-145 cells, the viability at 10 µM stood at 52%. In the data set on HeLa cells, the viability at 10 µM turned out to be 42.6%. Further, in the data set on MCF-7 cells, the viability at 10 µM amounted to 31.4%. Further, the viability at 10 µM in the data set on MDA-MB-231 cells is 43.2%.
On to `CN(C)c1ccc(/C=C2\C(=O)Nc3cc4oc(Cc5ccccc5)c(-c5ccccc5)c4cc32)c2ccccc12` [Compound 3j, (Z)-2-benzyl-5-((4-(dimethylamino)naphthalen-1-yl)methylene)-3-phenyl-5H-furo[3,2-f]indol-6(7H)-one], for which the melting point lay within 241 to 245 °C. Moreover, in data set [1], the “inhibitory activity of VEGF tyrosin kinase activity” value was “inhibitory activity”. In the data set with THP1 cells [2], the “accumulation of cells in the G0/G1 phase” value was found to be 93.5%. Besides, the viability at 10 µM in the data set on THP1 cells [3] stood at 83.3%. In addition, the viability at 10 µM with DU-145 cells stood at 45.2%. Also, in the data set with HeLa cells, the viability at 10 µM is 107%. Moreover, the viability at 10 µM in the data set with MCF-7 cells was determined as 37.8%. For the same compound, the viability at 10 µM with MDA-MB-231 cells was 71.3%.
